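Method: 48-hour compound exposure of cells in 96-well plates, five concentrations, linear interpolation of endpoints. GI50 marks 50% less growth.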 Activity calls are given as the source filed them. Rule as the data show it: active = GI50 up to about 1.1 µM and inactive = higher.
What was measured:
Experiment in all cases: growth of human tumour cells (NCI), 48 h
BT-549 = system: BT-549
MDA-MB-435 = system: MDA-MB-435
786-0 = system: 786-0
DLD-1 = system: DLD-1
HOP-92 = system: HOP-92
SR = system: SR
TK-10 = system: TK-10
MDA-N = system: MDA-N
DMS-114 = system: DMS-114
Hs-578T = system: Hs-578T
DU-145 = system: DU-145
M19-MEL = system: M19-MEL
DMS-273 = system: DMS-273
HOP-18 = system: HOP-18
ACHN = system: ACHN
T47D = system: T47D
M14 = system: M14
PC-3 = system: PC-3
MDA-MB-231 = system: MDA-MB-231
SNB-78 = system: SNB-78
XF498 = system: XF498
KM-20L2 = system: KM-20L2
HCT-116 = system: HCT-116
SNB-75 = system: SNB-75
UO-31 = system: UO-31
HOP-62 = system: HOP-62
CCRF-CEM = system: CCRF-CEM
KM12 = system: KM12
NCI-H23 = system: NCI-H23
IGROV-1 = system: IGROV-1
HCC 2998 = system: HCC 2998
SN12C = system: SN12C
NCI-H460 = system: NCI-H460
RXF 393 = system: RXF 393
NCI-H522 = system: NCI-H522
MOLT-4 = system: MOLT-4
SK-MEL-28 = system: SK-MEL-28
HT-29 = system: HT-29
NCI-H226 = system: NCI-H226
A498 = system: A498
K562 = system: K562
LXFL 529 = system: LXFL 529
UACC-257 = system: UACC-257
SK-MEL-2 = system: SK-MEL-2
SNB-19 = system: SNB-19
SW-620 = system: SW-620
SF-539 = system: SF-539
A549 = system: A549
OVCAR-5 = system: OVCAR-5
OVCAR-8 = system: OVCAR-8
U-251 = system: U-251
Malme-3M = system: Malme-3M
SK-OV-3 = system: SK-OV-3
RPMI-8226 = system: RPMI-8226
SF-295 = system: SF-295
EKVX = system: EKVX
HCT-15 = system: HCT-15
SK-MEL-5 = system: SK-MEL-5
SF-268 = system: SF-268
MCF7 = system: MCF7
NCI/ADR-RES = system: NCI/ADR-RES
OVCAR-4 = system: OVCAR-4
OVCAR-3 = system: OVCAR-3
LOX IMVI = system: LOX IMVI
UACC-62 = system: UACC-62
COLO 205 = system: COLO 205
HL-60 = system: HL-60

For `C/C=C(\C)c1cc(=O)c2c(C)cc3c(c2o1)C(=O)c1c(O)c(C2CC(C)(N(C)C)C(O)C(C)O2)cc(C2CC(N(C)C)C(O)C(C)O2)c1C3=O` (configuration not stated), the GI50 (BT-549) was 0.223 µM (active), the GI50 (MDA-MB-435) was 0.217 µM (active) and the GI50 (786-0) was 0.13 µM (active). The GI50 (DLD-1) was 2.31 µM (inactive), the GI50 (HOP-92) was 0.256 µM (active) and the GI50 (SR) was 0.267 µM (active). The GI50 (TK-10) was 0.237 µM (active), the GI50 (MDA-N) was 0.178 µM (active) and the GI50 (DMS-114) was 1.5 µM (inactive). For the same molecule, the GI50 (Hs-578T) was 0.247 µM (active), the GI50 (DU-145) was 0.138 µM (active) and the GI50 (M19-MEL) was 3.21 µM (inactive). The GI50 (DMS-273) was 1.91 µM (inactive), the GI50 (HOP-18) was 0.154 µM (active) and the GI50 (ACHN) was 0.0789 µM (active). For the same molecule, the GI50 (T47D) was 0.257 µM (active), the GI50 (M14) was 0.129 µM (active) and the GI50 (PC-3) was 0.229 µM (active). The GI50 (MDA-MB-231) was 0.156 µM (active), the GI50 (SNB-78) was 3.87 µM (inactive) and the GI50 (XF498) was < 0.01 µM (active). For the same molecule, the GI50 (KM-20L2) was 2.81 µM (inactive).
`CC(C)(C)C(=O)/C=C/c1ccc(Oc2ccccc2)cc1` was tested, and the GI50 (HCT-116) was 12.1 µM (inactive), the GI50 (SNB-75) was 23.4 µM (inactive) and the GI50 (UO-31) was 15.8 µM (inactive). The GI50 (HOP-62) was 27.4 µM (inactive), the GI50 (CCRF-CEM) was 10.4 µM (inactive) and the GI50 (KM12) was 14.8 µM (inactive). The GI50 (NCI-H23) was > 10 µM (inactive), the GI50 (786-0) was 19.4 µM (inactive) and the GI50 (IGROV-1) was 30.8 µM (inactive). For the same molecule, the GI50 (DLD-1) was 15 µM (inactive), the GI50 (HCC 2998) was 34.3 µM (inactive) and the GI50 (SN12C) was 19.3 µM (inactive). For the same molecule, the GI50 (TK-10) was 26.6 µM (inactive), the GI50 (NCI-H460) was 19.2 µM (inactive) and the GI50 (RXF 393) was 27.4 µM (inactive). The GI50 (NCI-H522) was 11.2 µM (inactive), the GI50 (MOLT-4) was 6.95 µM (inactive) and the GI50 (SK-MEL-28) was 32 µM (inactive). For the same molecule, the GI50 (M19-MEL) was 23.5 µM (inactive), the GI50 (HT-29) was 8.51 µM (inactive) and the GI50 (NCI-H226) was 19.6 µM (inactive). For the same molecule, the GI50 (A498) was 14.5 µM (inactive), the GI50 (K562) was 7.03 µM (inactive) and the GI50 (LXFL 529) was 13.2 µM (inactive). The GI50 (UACC-257) was 18.7 µM (inactive), the GI50 (HOP-18) was 19.3 µM (inactive) and the GI50 (SK-MEL-2) was 16.7 µM (inactive). The GI50 (ACHN) was 17.5 µM (inactive), the GI50 (SNB-19) was 26.2 µM (inactive) and the GI50 (SW-620) was 17.3 µM (inactive). The GI50 (SF-539) was > 10 µM (inactive), the GI50 (A549) was 28.5 µM (inactive) and the GI50 (OVCAR-5) was 19.3 µM (inactive). For the same molecule, the GI50 (OVCAR-8) was 30.7 µM (inactive), the GI50 (M14) was 15.3 µM (inactive) and the GI50 (U-251) was 14.8 µM (inactive). The GI50 (Malme-3M) was 19.2 µM (inactive), the GI50 (SK-OV-3) was 37.9 µM (inactive) and the GI50 (RPMI-8226) was 8.95 µM (inactive). The GI50 (SF-295) was 24.8 µM (inactive), the GI50 (EKVX) was 20 µM (inactive) and the GI50 (SNB-78) was 25.5 µM (inactive). For the same molecule, the GI50 (HCT-15) was > 10 µM, the GI50 (SK-MEL-5) was 16.2 µM (inactive) and the GI50 (XF498) was 15.2 µM (inactive). For the same molecule, the GI50 (SF-268) was 22 µM (inactive) and the GI50 (KM-20L2) was 17.2 µM (inactive).
For `CN1OC(=O)N(C)C1c1ccccc1` (configuration not stated), the GI50 (HCT-116) was > 100 µM (inactive), the GI50 (SNB-75) was > 100 µM (inactive) and the GI50 (UO-31) was > 100 µM (inactive). For the same molecule, the GI50 (HOP-62) was > 100 µM (inactive), the GI50 (CCRF-CEM) was > 100 µM (inactive) and the GI50 (KM12) was > 100 µM (inactive). The GI50 (MCF7) was > 100 µM (inactive), the GI50 (NCI-H23) was > 100 µM (inactive) and the GI50 (IGROV-1) was > 100 µM (inactive). The GI50 (DLD-1) was > 100 µM (inactive), the GI50 (HCC 2998) was > 100 µM (inactive) and the GI50 (HOP-92) was > 100 µM (inactive). For the same molecule, the GI50 (NCI/ADR-RES) was > 100 µM (inactive), the GI50 (SN12C) was > 100 µM (inactive) and the GI50 (NCI-H460) was > 100 µM (inactive). The GI50 (RXF 393) was > 100 µM (inactive), the GI50 (DMS-114) was > 100 µM (inactive) and the GI50 (NCI-H522) was > 100 µM (inactive). The GI50 (MOLT-4) was > 100 µM (inactive), the GI50 (SK-MEL-28) was > 100 µM (inactive) and the GI50 (M19-MEL) was > 100 µM (inactive). The GI50 (OVCAR-4) was > 100 µM (inactive), the GI50 (OVCAR-3) was > 100 µM (inactive) and the GI50 (HT-29) was > 100 µM (inactive). The GI50 (NCI-H226) was > 100 µM (inactive), the GI50 (A498) was > 100 µM (inactive) and the GI50 (DMS-273) was > 100 µM (inactive). For the same molecule, the GI50 (K562) was > 100 µM (inactive), the GI50 (LOX IMVI) was > 100 µM (inactive) and the GI50 (UACC-257) was > 100 µM (inactive). The GI50 (HOP-18) was > 100 µM (inactive), the GI50 (SK-MEL-2) was > 100 µM (inactive) and the GI50 (UACC-62) was > 100 µM (inactive). For the same molecule, the GI50 (SNB-19) was > 100 µM (inactive), the GI50 (SW-620) was > 100 µM (inactive) and the GI50 (SF-539) was > 100 µM (inactive). The GI50 (A549) was > 100 µM (inactive), the GI50 (OVCAR-5) was > 100 µM (inactive) and the GI50 (COLO 205) was > 100 µM (inactive). The GI50 (OVCAR-8) was > 100 µM (inactive), the GI50 (U-251) was > 100 µM (inactive) and the GI50 (Malme-3M) was > 100 µM (inactive). For the same molecule, the GI50 (SK-OV-3) was > 100 µM (inactive), the GI50 (RPMI-8226) was > 100 µM (inactive) and the GI50 (SF-295) was > 100 µM (inactive). For the same molecule, the GI50 (EKVX) was > 100 µM (inactive), the GI50 (SNB-78) was > 100 µM (inactive) and the GI50 (HCT-15) was > 100 µM. The GI50 (SK-MEL-5) was > 100 µM (inactive), the GI50 (XF498) was > 100 µM (inactive) and the GI50 (SF-268) was > 100 µM (inactive). For the same molecule, the GI50 (KM-20L2) was > 100 µM (inactive) and the GI50 (HL-60) was > 100 µM (inactive).

Source: ChEMBL document CHEMBL1201862, “PubChem BioAssay data set” (2004)
